“Also recorded” adds a separate entry of the source. Marks after values point to notes of the source that are not given here.
How the values were obtained:
[1] = biological target: T1, human M1 muscarinic receptors (Homo sapiens, UniProt P11229); experiment: [3H]AA release ACh dose-response families fitted to an allosteric operational model; conditions: given as logKB (negative log value); allosteric site; Em set to 2.0
T1 sequence (P11229 1-460): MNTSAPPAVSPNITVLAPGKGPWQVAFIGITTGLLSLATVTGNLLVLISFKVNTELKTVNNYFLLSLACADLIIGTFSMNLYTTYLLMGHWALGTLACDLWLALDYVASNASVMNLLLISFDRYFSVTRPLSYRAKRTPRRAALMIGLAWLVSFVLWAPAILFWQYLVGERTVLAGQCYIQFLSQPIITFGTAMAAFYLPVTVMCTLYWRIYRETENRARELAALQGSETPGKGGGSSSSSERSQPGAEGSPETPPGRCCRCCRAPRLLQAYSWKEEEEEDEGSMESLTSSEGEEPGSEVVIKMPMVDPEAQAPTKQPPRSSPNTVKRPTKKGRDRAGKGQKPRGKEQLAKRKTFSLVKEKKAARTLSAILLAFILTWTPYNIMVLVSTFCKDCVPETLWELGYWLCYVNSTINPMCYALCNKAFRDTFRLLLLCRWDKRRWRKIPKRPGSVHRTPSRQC

[2] = system: wild-type (AB) zebrafish (Danio rerio); experiment: animal or person; assay type: in vivo; conditions: for Distance moved / Variance turn angle: compound at 10 µM relative to controls, mean ± s.e.m., N = 12; for MEC: locomotor behaviors
Protocol: (§1) Larval zebrafish were produced in the University of Toledo zebrafish core facility and housed in an incubator maintained at 28 °C on a 14:10 h cycle. Fish were acclimated to the testing room conditions the evening prior to testing. All testing took place during the 14 h light cycle after the lights had been on for at least 2 h.
The movement of larval zebrafish was monitored with the Noldus behavior recording system (Noldus Information Technology, Leesburg VA) and quantified using EthoVision® XT 15 software (Noldus Information Technology, Leesburg VA). Five-dpf zebrafish larvae were exposed to a range of nonlethal concentrations of compounds in a 24-well plate with appropriate controls. The plate was immediately placed in the incubator for a 30-min exposure period. After 30 min, the plate was transferred to the Noldus system and swimming behavior was recorded in 100% light for 30 min to measure spontaneous swimming behavior. The light was switched off for 10 min (dark period) and then switched on for 10 min (light period), which was then repeated for two additional cycles. In total, the larvae were exposed to three cycles of alternating 10 min dark and light periods (100% darkness-to-100% light). Each drug challenge was conducted on three separate plates with n = 6 larvae/dose/plate.
Absolute turn angle (TA) and angular velocity provided measures of the extent of turning behavior, while the intra-individual variance of turn angle quantified how consistently (low variance) or inconsistently (high variance) fish turned. A lowered intra-individual variance of turning reflected repeatedly performing the same turning behavior, a stereotypy.
All data for exposure and the behavioral end points were analyzed by one-way ANOVA (factor: drug concentration) followed by a Dunnett’s multiple comparisons test for post hoc significance between drug concentration and control group. Statistically significant differences are noted as follows; *p < 0.05; **p < 0.01; ***p < 0.001.

[3] = biological target: T1, human M1 muscarinic receptors; experiment: [3H]-arachidonic acid release in CHO cells expressing M1 receptors, with and without ACh (single modulator concentration, four-parameter curves); assay type: cell-based; set-up: expressed in transfected cells; host or cells: CHO cells stably transfected with hM1, obtained from Mark Brann's laboratory (NIH); conditions: for 0.1 µM ACh: response with modulator present divided by response to ACh alone / 100 µM ACh: response with modulator present divided by response to ACh alone / No ACh: agonist effect of the allosteric ligand by itself, fraction of the maximal response that could be elicited by ACh: modulator 10 µM, CHO-hM1, mean ± s.e.m.; for No ACh: agonist effect of the allosteric ligand by itself, fraction of the maximal response that could be elicited by ACh: at least 4 determinations; for Effect on M1 receptor activity and ACh response, in words: modulators at 10 µM (amiodarone 30 µM)
Protocol: CHO cells expressing human M1 muscarinic receptors were cultured at 37 °C in a 5% CO2 atmosphere in F12 medium supplemented with 5% fetal bovine serum, 100 units/ml penicillin, and 100 µg/ml streptomycin. These cells were obtained from Mark Brann’s laboratory when they were at NIH and have been in use by us and others for many years.
Measurement of [^3H]AA release was performed as described in Stahl and Ellis[24]. Stably transfected CHO-hM1 cells were seeded on 24-well plates (Greiner Bio-One GmbH, Frickenhausen, Germany) at a density of 5.0 × 10^4 cells/well in 0.5 ml of F-12 medium. Cells were incubated until they attached (approximately 3 h), followed by the addition of [^3H]AA to a final concentration of 0.05 μCi of [^3H]AA per well. The cells were then grown for 16 to 20 h before the assay was performed. [^3H]AA release was measured in Eagle’s basal medium with 20 mM HEPES and 2 mg/ml fatty acid-free bovine serum albumin (EM-BSA). Cells were rinsed twice with EM-BSA, followed by the addition of EM-BSA media containing experimental agents and incubated for 1 h at 37 °C. The assay was terminated by aspiration of the media, and the amount of [^3H]AA released was determined by liquid scintillation counting (Beckman-Coulter LS6500).
Where indicated (Fig. 2), cells were pretreated with POB to reduce the number of available receptors per cell. Stock POB was made up at 10 mM in ethanol and stored at −20C. Each well was pretreated with 0.5 ml of the appropriate concentration in PBS with 1 mM CaCl2 and 1 mM MgCl2 (PBS+ +) for 30 min at 37 °C, followed by 5 washes with PBS+ + . After pretreatment, the normal protocol follows as above.
Tabulated [^3H]AA release data are represented as a fraction of maximal release elicited by ACh or as the fraction of release elicited by the relevant concentration of ACh alone, as indicated. Dose-response curves were normalized to the maximal response of ACh without allosteric ligand. Where indicated, response curves were analyzed using the empirical four-parameter equation: Y=Top+Bottom-Top/1+X/C50^n where X is the concentration of the ligand used, Y is the amount of response, C50 is the concentration of the ligand that produces 50% of the maximal effect, Top and Bottom are the top and bottom plateaus of the curve, and n is related to the Hill slope for the curve. Where indicated, families of response curves were analyzed according to an allosteric operational model[50],[51]: Y=EM[τAA(KB+αβB)+τBBKA]/[τAA(KB+αβB)+τBBKA+AKB+KAKB+KAB+αAB] where EM is the maximal response; A is the concentration of ACh; B is the concentration of the allosteric ligand; τA and τB represent the operational efficacies of A and B, respectively; KA and KB are the equilibrium dissociation constants of A and B; and α and β represent the cooperativities between A and B in terms of binding and activation, respectively. Curve-fitting was carried out with GraphPad Prism, version 5.0 or 6.0 (San Diego CA).

[4] = system: wild-type (AB) zebrafish (Danio rerio); experiment: Maximum tolerated concentration (MTC) determination in larval zebrafish; assay type: in vivo; conditions: after 24 h exposure; 5 dpf larvae
Protocol: as §1
Determination of maximum tolerated concentration (adapted from Berghmans)[52] was completed by placing 5 days post fertilization (dpf) wild-type zebrafish larvae in a 24 well plate at 6 fish per well, and one compound concentration per well. […] Death was determined by the absence of heartbeat. Additional endpoints were used to assess toxicity at non-lethal concentrations such as startle capacity (poke stimulus), abnormalities in swimming behavior (loss of dorsoventral balance), and gross morphological deformities (bent body). […] The MTC determination was used to select three doses of each compound (low, medium, high dose) to be used in behavioral assays.

[5] = system: wild-type (AB) zebrafish (Danio rerio); assay type: in vivo; conditions: compound at 10 µM relative to controls; mean ± s.e.m., N = 12

SMILES	Affinity-B, logKB [1]	Effect on locomotor activity and turning behaviors, in words ([2]; 30 min spontaneous swimming period)	Distance moved [2]	Variance turn angle [2]	MEC [2]	0.1 µM ACh: response with modulator present divided by response to ACh alone [3]	100 µM ACh: response with modulator present divided by response to ACh alone [3]	No ACh: agonist effect of the allosteric ligand by itself, fraction of the maximal response that could be elicited by ACh [3]	Effect on M1 receptor activity and ACh response, in words [3]	MTC (maximum tolerated concentration) [4]	Angular velocity [5]	Therap. index [2]
CCN(CC)CCOc1ccc(CN2C(=O)C(=O)c3ccccc32)cc1 [Compound 7, 1-(4-(2-(diethylamino)ethoxy)benzyl)indoline-2,3-dione]	−6.20 ± 0.33	not effective in reducing locomotor activity or elevating angular velocity or variance of turn angle	72.5 ± 11.8%	93.9 ± 10.6%	> 10 µM	0.06 ± 0.01	1.11 ± 0.06	0.02 ± 0.01	primarily decreased potency and slightly enhanced the efficacy of ACh; also recorded: lacked intrinsic activity; also recorded: decreased ACh potency with little impact on ACh efficacy	10 µM	122.4 ± 6.9%	–
COc1ccc(CN2C(=O)C(=O)c3ccccc32)cc1F [Compound 8h, 1-(3-fluoro-4-methoxybenzyl)indoline-2,3-dione]	–	–	52.7 ± 6.6*** %	148.0 ± 12.4*** %	3 µM	1.32 ± 0.10	0.97 ± 0.06	0.05 ± 0.03	–	30 µM	201.4 ± 27.5 %	10
O=C1C(=O)N(Cc2cc(F)c(F)c(F)c2)c2ccccc21 [Compound 8i, 1-(3,4,5-trifluorobenzyl)indoline-2,3-dione]	–	–	11.6 ± 1.2*** %	146.1 ± 16.1** %	1 µM	1.47 ± 0.12	1.04 ± 0.02	0.06 ± 0.01	–	10 µM	412.1 ± 28.7 %	10
COc1cc(CN2C(=O)C(=O)c3ccccc32)cc(OC)c1OC [Compound 8k, 1-(3,4,5-trimethoxybenzyl)indoline-2,3-dione]	–	–	66.2 ± 8.4** %	126.3 ± 10.8* %	1 µM	1.55 ± 0.07	0.94 ± 0.06	0.03 ± 0.00	–	30 µM	154.2 ± 18.0 %	30
CCN(CC)CCOc1c(Br)cc(CN2C(=O)C(=O)c3ccccc32)cc1Br.Cl [Compound 8l, 1-(3,5-dibromo-4-(2-(diethylamino)ethoxy)benzyl)indoline-2,3-dione hydrochloride]	–	–	33.5 ± 4.4** %	166.1 ± 12.5*** %	10 µM	0.10 ± 0.07	0.86 ± 0.04	0.05 ± 0.01	only decreased ACh activity; also recorded: decreased ACh potency with little impact on ACh efficacy	10 µM	184.7 ± 17.0 %	1
O=C1C(=O)N(Cc2ccc(O)cc2)c2ccccc21 [Compound 10, 1-(4-hydroxybenzyl)indoline-2,3-dione]	–	–	72.4 ± 8.6* %	135.3 ± 13.5* %	3 µM	1.42 ± 0.24	0.92 ± 0.06	0.01 ± 0.01	–	10 µM	131.2 ± 13.4 %	3.3
CCCCc1oc2ccc(NS(C)(=O)=O)cc2c1C(=O)c1ccc(OCCCN(CCCC)CCCC)cc1 [Dronedarone, reference compound]	–	–	28.3 ± 5.3*** %	141.6 ± 12.5*** %	10 µM	0.25 ± 0.05	0.75 ± 0.07	0.08 ± 0.01	–	10 µM	172.8 ± 25.7 %	1

Reference: paper PMC11213934, “Allosteric modulators of M1 muscarinic receptors enhance acetylcholine efficacy and decrease locomotor activity and turning behaviors in zebrafish” (Scientific Reports, 2024)
